Experimental data reported in patent US9375459B2, “Cyclic peptides with an anti-neoplasic and anti-angiogenic activity” (priority 2011, dated 2016).
Entries after “also recorded” stand apart in the source; their conditions may differ. Where a SMILES comes first, the peptide text is derived from it.

Test system: human tumor cells
Experiment: Cytotoxic activity screening of peptide library on human tumor cell lines, SRB method
Format: cell-based
Settings: for Cytotoxic activity in vitro: SRB method, cytotoxic = dose-dependent 50% inhibition of proliferation, GI50 below 100 μM in at least one cell line; for cytotoxic / biological activity in vitro on tumor cells: peptide library screening
Experimental: Negative control cells were cultured on a volume of vehicle equal to that of the experimental samples. An “x-y” curve (dose-response) was established with the percent of surviving cells, compared in respect to the negative control cells, and the following parameters were estimated: 50% growth inhibition (GI50); Total growth inhibition (TGI); and the lethal concentration 50 (LC50), that is the concentration causing the 50% of cell death (Boyd M R, Paull K D, and Rubinstein L R (1992) “Data display and analysis strategies for the NCI Disease Oriented In-Vitro Antitumor Drug Screen, in Cytotoxic Anticancer Drugs: Models and Concept for Drug Discovery and Development” (Baleriote F A, Corbett T H and Baker L H eds) pp 11-34, Kluwer Academia Publishers, Boston).
Were considered as cytotoxic peptides all those peptides being able of inhibiting 50% of the cellular proliferation, in a dose-dependent manner, and showing GI50 values below 100 μM, at least in one of the cell lines studied. The human tumor cell lines used were: HEp-2 (larynx carcinoma), A549 (lung epithelial adenocarcinoma), M14 (melanoma), Colo 205 (colon adenocarcinoma), Ls174T (colon adenocarcinoma), LnCAP (prostate carcinoma), PC-3 (prostate carcinoma) and H 125 (non-small cell lung adenocarcinoma). Represented are primary sequences for the designed peptides, the code used for its generation and their respective cytotoxic capacity on human tumor cells.

| SMILES | Cytotoxic activity in vitro | cytotoxic / biological activity in vitro on tumor cells |
| --- | --- | --- |
| CC[C@H](C)[C@H](NC(=O)[C@H](CCCNC(=N)N)NC(=O)[C@H](CCC(N)=O)NC(=O)[C@H](CC(N)=O)NC(=O)[C@H](C)NC(=O)[C@@H](NC(=O)[C@H](Cc1ccc(O)cc1)NC(=O)CNC(=O)[C@@H](N)CO)[C@@H](C)O)C(=O)N[C@@H](CC(N)=O)C(=O)N[C@@H](CC(C)C)C(=O)N[C@@H](CC(N)=O)C(=O)N[C@@H](CCC(=O)O)C(=O)N[C@@H](CCCCN)C(=O)N[C@@H](CO)C(=O)N[C@@H](Cc1ccccc1)C(=O)N[C@@H](CO)C(=O)N[C@@H](CC(=O)O)C(=O)N[C@H](C(=O)NCC(N)=O)C(C)C [Peptide A07P42] (H-SGYTANQRINLNEKSFSDVG-NH2) | − (symbol − indicates its absence, following criteria established in Example 2) |  |
| CC(C)C[C@H](NC(=O)[C@@H](NC(=O)[C@H](CC(=O)O)NC(=O)[C@H](CC(N)=O)NC(=O)CNC(=O)[C@H](C)NC(=O)CNC(=O)CNC(=O)[C@H](CCCCN)NC(=O)[C@H](CC(C)C)NC(=O)[C@@H](NC(=O)[C@H](CC(N)=O)NC(=O)[C@H](CC(N)=O)NC(=O)[C@H](C)N)C(C)C)C(C)C)C(=O)N[C@@H](Cc1ccccc1)C(=O)NCC(=O)NCC(=O)NCC(=O)NCC(=O)N[C@@H](C)C(N)=O [Peptide A07P43] (H-ANNVLKGGAGNDVLFGGGGA-NH2) | − (symbol − indicates its absence, following criteria established in Example 2) |  |
| CC[C@H](C)[C@H](NC(=O)[C@H](C)NC(=O)[C@H](CC(N)=O)NC(=O)[C@H](CCC(=O)O)NC(=O)[C@@H](NC(=O)[C@@H](NC(=O)[C@@H](NC(=O)CNC(=O)[C@H](C)NC(=O)[C@H](C)NC(=O)[C@@H](NC(=O)[C@H](CO)NC(=O)[C@@H](NC(=O)[C@H](CC(N)=O)NC(=O)CNC(=O)[C@H](CCCCN)NC(=O)[C@H](CC(C)C)NC(=O)CN)C(C)C)[C@@H](C)CC)C(C)C)[C@@H](C)O)[C@@H](C)CC)C(=O)NCC(=O)NCC(N)=O [Peptide A07P44] (H-GLKGNVSIAAGVTIENAIGG-NH2) | − (symbol − indicates its absence, following criteria established in Example 2) |  |
| CC[C@H](C)[C@H](NC(=O)[C@H](C)NC(=O)[C@H](CC(N)=O)NC(=O)[C@H](CCC(=O)O)NC(=O)[C@@H](NC(=O)[C@@H](NC(=O)[C@@H](NC(=O)CN)C(C)C)[C@@H](C)O)[C@@H](C)CC)C(=O)NCC(=O)NCC(=O)N[C@@H](CO)C(=O)NCC(=O)N[C@@H](CC(N)=O)C(=O)N[C@@H](CC(=O)O)C(=O)N[C@H](C(=O)N[C@H](C(=O)N[C@H](C(=O)NCC(=O)N[C@@H](CC(N)=O)C(=O)N[C@@H](C)C(N)=O)C(C)C)[C@@H](C)CC)C(C)C [Peptide A07P45] (H-GVTIENAIGGSGNDVIVGNA-NH2) | − (symbol − indicates its absence, following criteria established in Example 2) |  |
| CC(C)C[C@H](NC(=O)[C@H](CCC(=O)O)NC(=O)[C@H](CC(=O)O)NC(=O)[C@H](C)NC(=O)CNC(=O)CNC(=O)CNC(=O)CNC(=O)[C@H](Cc1ccccc1)NC(=O)[C@H](CC(C)C)NC(=O)[C@@H](NC(=O)[C@H](CC(=O)O)NC(=O)[C@@H](N)CC(N)=O)C(C)C)C(=O)N[C@@H](Cc1c[nH]c2ccccc12)C(=O)NCC(=O)NCC(=O)N[C@@H](C)C(=O)NCC(=O)N[C@@H](CCCCN)C(=O)N[C@@H](CC(=O)O)C(N)=O [Peptide A07P46] (H-NDVLFGGGGADELWGGAGKD-NH2) | − (symbol − indicates its absence, following criteria established in Example 2) |  |
| CC[C@H](C)[C@H](NC(=O)[C@H](CO)NC(=O)[C@@H](NC(=O)[C@H](CC(N)=O)NC(=O)CNC(=O)[C@H](CCCCN)NC(=O)[C@H](CC(C)C)NC(=O)CNC(=O)CNC(=O)[C@@H](NC(=O)[C@H](CC(=O)O)NC(=O)[C@H](CO)NC(=O)[C@H](Cc1ccccc1)NC(=O)[C@H](CO)NC(=O)[C@H](CCCCN)NC(=O)[C@H](CCC(=O)O)NC(=O)[C@H](CC(N)=O)NC(=O)[C@@H](N)CC(C)C)C(C)C)C(C)C)C(=O)N[C@@H](C)C(=O)N[C@@H](C)C(N)=O [Peptide A07P47] (H-LNEKSFSDVGGLKGNVSIAA-NH2) | − (symbol − indicates its absence, following criteria established in Example 2) |  |
| C[C@H](NC(=O)[C@H](C)NC(=O)[C@H](Cc1ccc(O)cc1)NC(=O)[C@H](Cc1c[nH]cn1)NC(=O)CNC(=O)CNC(=O)[C@H](CC(N)=O)NC(=O)[C@H](CC(=O)O)NC(=O)CNC(=O)CNC(=O)[C@@H](NC(=O)[C@H](CC(N)=O)NC(=O)[C@@H](NC(=O)[C@H](CCC(=O)O)NC(=O)[C@H](CO)NC(=O)[C@H](Cc1c[nH]c2ccccc12)NC(=O)[C@H](Cc1ccc(O)cc1)NC(=O)[C@@H](N)CO)[C@@H](C)O)[C@@H](C)O)C(=O)N[C@@H](C)C(=O)N1CCC[C@H]1C(N)=O [Peptide D06P91] (H-SYWSETNTGGDNGGHYAAAP-NH2) | − (symbol − indicates its absence, following criteria established in Example 2) |  |
| CC[C@H](C)[C@H](NC(=O)[C@H](C)NC(=O)[C@H](C)NC(=O)[C@@H](NC(=O)[C@H](CC(=O)O)NC(=O)[C@H](CC(=O)O)NC(=O)[C@H](CC(C)C)NC(=O)[C@H](CC(C)C)NC(=O)[C@@H]1CCCN1C(=O)[C@H](C)NC(=O)[C@H](C)NC(=O)[C@H](C)NC(=O)[C@H](Cc1ccc(O)cc1)NC(=O)[C@H](Cc1c[nH]cn1)NC(=O)CNC(=O)CNC(=O)[C@H](CC(N)=O)NC(=O)[C@@H](N)CC(=O)O)[C@@H](C)CC)C(=O)N[C@@H](CCC(N)=O)C(=O)N[C@@H](Cc1c[nH]cn1)C(N)=O [Peptide E07P01] (H-DNGGHYAAAPLLDDIAAIQH-NH2) | − (symbol − indicates its absence, following criteria established in Example 2) |  |
| CC[C@H](C)[C@H](NC(=O)[C@H](CC(N)=O)NC(=O)[C@@H](N)C(C)C)C(=O)NCC(=O)NCC(=O)N[C@@H](Cc1c[nH]cn1)C(=O)N[C@@H](CCC(N)=O)C(=O)N[C@@H](C)C(=O)N1CCC[C@H]1C(=O)N[C@@H](CC(=O)O)C(=O)N[C@@H](Cc1ccccc1)C(=O)N[C@@H](CC(C)C)C(=O)N[C@H](C(=O)N[C@@H](CCCCN)C(=O)N[C@H](C(=O)N[C@H](C(=O)NCC(=O)N[C@@H](CCC(N)=O)C(=O)N[C@H](C(=O)N[C@@H](CC(=O)O)C(N)=O)C(C)C)C(C)C)[C@@H](C)CC)C(C)C [Peptide E07P02] (H-VNIGGHQAPDFLVKIVGQVD-NH2) | − (symbol − indicates its absence, following criteria established in Example 2) |  |
| CC[C@H](C)[C@H](NC(=O)[C@H](Cc1ccccc1)NC(=O)[C@H](CC(=O)O)NC(=O)[C@@H](NC(=O)[C@H](C)NC(=O)[C@@H](NC(=O)[C@H](CC(=O)O)NC(=O)[C@@H](NC(=O)[C@H](CCC(N)=O)NC(=O)CNC(=O)[C@@H](NC(=O)[C@@H](NC(=O)[C@H](CCCCN)NC(=O)[C@@H](NC(=O)[C@H](CC(C)C)NC(=O)[C@@H](N)Cc1ccccc1)C(C)C)[C@@H](C)CC)C(C)C)C(C)C)C(C)C)[C@@H](C)O)C(=O)N[C@H](C(N)=O)C(C)C [Peptide E07P03, FLVKIVGQVDVATDFIV- amide] (H-FLVKIVGQVDVATDFIV-NH2) | − (symbol − indicates its absence, following criteria established in Example 2) |  |
| CC[C@H](C)[C@H](NC(=O)[C@H](C)NC(=O)[C@H](C)NC(=O)[C@@H](NC(=O)[C@H](CC(=O)O)NC(=O)[C@H](CC(=O)O)NC(=O)[C@H](CC(C)C)NC(=O)[C@@H](N)CC(C)C)[C@@H](C)CC)C(=O)N[C@@H](CCC(N)=O)C(=O)N[C@@H](Cc1c[nH]cn1)C(=O)N[C@@H](CC(C)C)C(=O)N[C@@H](Cc1ccc(O)cc1)C(=O)NCC(=O)N[C@@H](C)C(=O)N[C@@H](CC(N)=O)C(=O)N1CCC[C@H]1C(=O)N[C@@H](CO)C(=O)N[C@H](C(=O)N[C@@H](CCCNC(=N)N)C(=O)N[C@H](C(N)=O)[C@@H](C)O)[C@@H](C)O [Peptide E07P05] (H-LLDDIAAIQHLYGANPSTRT-NH2) | − (symbol − indicates its absence, following criteria established in Example 2) |  |
| CC(C)C[C@H](N)C(=O)N[C@@H](Cc1ccc(O)cc1)C(=O)NCC(=O)N[C@@H](C)C(=O)N[C@@H](CC(N)=O)C(=O)N1CCC[C@H]1C(=O)N[C@@H](CO)C(=O)N[C@H](C(=O)N[C@@H](CCCNC(=N)N)C(=O)N[C@H](C(=O)NCC(=O)N[C@@H](CC(=O)O)C(=O)N[C@H](C(=O)N[C@H](C(=O)N[C@@H](Cc1ccc(O)cc1)C(=O)NCC(=O)N[C@@H](Cc1ccccc1)C(=O)N[C@@H](CC(N)=O)C(=O)N[C@@H](CO)C(=O)N[C@@H](CC(N)=O)C(N)=O)C(C)C)[C@@H](C)O)[C@@H](C)O)[C@@H](C)O [Peptide E07P06] (H-LYGANPSTRTGDTVYGFNSN-NH2) | − (symbol − indicates its absence, following criteria established in Example 2) | no cytotoxic activity |
| CC[C@H](C)[C@H](NC(=O)[C@@H](NC(=O)[C@H](CCCCN)NC(=O)[C@H](CCC(N)=O)NC(=O)[C@H](CO)NC(=O)[C@H](CC(N)=O)NC(=O)[C@H](CO)NC(=O)[C@@H](NC(=O)[C@@H](NC(=O)[C@H](CO)NC(=O)[C@H](CC(C)C)NC(=O)[C@H](Cc1ccccc1)NC(=O)[C@H](CC(=O)O)NC(=O)[C@H](CCCNC(=N)N)NC(=O)CNC(=O)[C@@H](N)[C@@H](C)O)[C@@H](C)O)[C@@H](C)O)C(C)C)C(=O)N[C@@H](Cc1ccccc1)C(=O)N[C@@H](C)C(=O)N[C@@H](C)C(=O)N[C@@H](Cc1c[nH]c2ccccc12)C(N)=O [Peptide F07P16] (H-TGRDFLSTTSNSQKVIFAAW-NH2) | − (symbol − indicates its absence, following criteria established in Example 2) | no cytotoxic activity; also recorded: inactive |
